By IC50 is commonly meant the concentration that inhibits the measured activity by half.

In this test the test system is MCF7 cells. The test can be described thus: Anti-proliferation (viability) of MCF7 cells (Table 7, FIG. 2B). Type of test: cell-based. Conditions: Homo sapiens, MCF7, MCF7 cells, 3-6 days, 10-point serial dilution; read-out: GI IC50 in MCF-7.

Take `CC(=O)c1c(C)c2cnc(Nc3ccc(N4CCN(CC(=O)NC(C)(C)C5CC(Nc6nc(NC(C)C)ccc6C(=O)Nc6cc(C)on6)C5)CC4)cn3)nc2n(C2CCCC2)c1=O` (stereo not shown) [CPD-410, 2-((3-(2-(2-(4-(6-((6-acetyl-8-cyclopentyl-5-methyl-7-oxo-7,8-dihydropyrido[2,3-d]pyrimidin-2-yl)amino)pyridin-3-yl)piperazin-1-yl)acetamido)propan-2-yl)cyclobutyl)amino)-6-(isopropylamino)-N-(5-methylisoxazol-3-yl)nicotinamide]: the IC50 was above 100 nM.

Consider `CNc1ccc(C(=O)Nc2ccc(N(C)C)nn2)c(NC2CCC(C(=O)N3CCC4(CC3)CCN(c3ccc(Nc5ncc6c(C)c(C(C)=O)c(=O)n(C7CCCC7)c6n5)nc3)CC4)CC2)n1` (stereo not shown) [CPD-350, 2-((4-(9-(6-((6-acetyl-8-cyclopentyl-5-methyl-7-oxo-7,8-dihydropyrido[2,3-d]pyrimidin-2-yl)amino)pyridin-3-yl)-3,9-diazaspiro[5.5]undecane-3-carbonyl)cyclohexyl)amino)-N-(6-(dimethylamino)pyridazin-3-yl)-6-(methylamino)nicotinamide], for which the IC50 was above 100 nM.

For `CC(=O)c1c(C)c2cnc(Nc3ccc(N4CCN(CCC(=O)N5CC(Nc6nc(NC(C)C)ccc6C(=O)Nc6ccc(N(C)C)nn6)C5)CC4)cn3)nc2n(C2CCCC2)c1=O` [CPD-303, 2-((1-(3-(4-(6-((6-acetyl-8-cyclopentyl-5-methyl-7-oxo-7,8-dihydropyrido[2,3-d]pyrimidin-2-yl)amino)pyridin-3-yl)piperazin-1-yl)propanoyl)azetidin-3-yl)amino)-N-(6-(dimethylamino)pyridazin-3-yl)-6-(isopropylamino)nicotinamide], the IC50 was below 50 nM.

For `CC(=O)c1c(C)c2cnc(Nc3ccc(N4CCN(C(CC(=O)N5CC6(CC(Nc7nc(NC(C)C)ccc7C(=O)Nc7cn(C)c(C8CC8)n7)C6)C5)C(F)(F)F)CC4)cn3)nc2n(C2CCCC2)c1=O` (stereo not shown) [CPD-436, 2-((2-(3-(4-(6-((6-acetyl-8-cyclopentyl-5-methyl-7-oxo-7,8-dihydropyrido[2,3-d]pyrimidin-2-yl)amino)pyridin-3-yl)piperazin-1-yl)-4,4,4-trifluorobutanoyl)-2-azaspiro[3.3]heptan-6-yl)amino)-N-(2-cyclopropyl-1-methyl-1H-imidazol-4-yl)-6-(isopropylamino)nicotinamide], the concentration for half-maximal inhibition (IC50) was below 50 nM.

Regarding `CC(=O)c1c(C)c2cnc(Nc3ccc(N4CCN(CC(=O)NC5CC6(C5)CC(Oc5nc(NC(C)C)ccc5C(=O)Nc5cn(C)c(C7CC7)n5)C6)CC4)cn3)nc2n(C2CCCC2)c1=O` (stereo not shown) [CPD-317, 2-((6-(2-(4-(6-((6-acetyl-8-cyclopentyl-5-methyl-7-oxo-7,8-dihydropyrido[2,3-d]pyrimidin-2-yl)amino)pyridin-3-yl)piperazin-1-yl)acetamido)spiro[3.3]heptan-2-yl)oxy)-N-(2-cyclopropyl-1-methyl-1H-imidazol-4-yl)-6-(isopropylamino)nicotinamide], the IC50 was above 100 nM.

As for `CC(=O)c1c(C)c2cnc(Nc3ccc(C4CCC(NCC(=O)N5CCC(Nc6nc(NC(C)C)ccc6C(=O)Nc6ccc(N(C)C)nn6)CC5)CC4)cn3)nc2n(C2CCCC2)c1=O` (stereo not shown) [CPD-389, 2-((1-((4-(6-((6-acetyl-8-cyclopentyl-5-methyl-7-oxo-7,8-dihydropyrido[2,3-d]pyrimidin-2-yl)amino)pyridin-3-yl)cyclohexyl)glycyl)piperidin-4-yl)amino)-N-(6-(dimethylamino)pyridazin-3-yl)-6-(isopropylamino)nicotinamide], the IC50 is above 100 nM.

Take `[2H]C([2H])([2H])Nc1ccc(C(=O)Nc2ccc(N(C)C)nn2)c(NC2CC3(C2)CC(C(=O)N2CCC4(CCN(c5ccc(Nc6ncc7c(C)c(C(C)=O)c(=O)n(C8CCCC8)c7n6)nc5)C4)C2)C3)n1` (stereo not shown) [CPD-379, 2-((6-(7-(6-((6-acetyl-8-cyclopentyl-5-methyl-7-oxo-7,8-dihydropyrido[2,3-d]pyrimidin-2-yl)amino)pyridin-3-yl)-2,7-diazaspiro[4.4]nonane-2-carbonyl)spiro[3.3]heptan-2-yl)amino)-N-(6-(dimethylamino)pyridazin-3-yl)-6-((methyl-d3)amino)nicotinamide]: the IC50 was above 100 nM.

The values above are taken from patent US20260297081A1, “COMPOUNDS AND METHODS OF TREATING CANCERS” (Cullgen Inc., priority 2023, published 2026).
